Assays:
[1] = biological target: Recombinant human Bcl-2 protein (Homo sapiens (Human), UniProt P10415); assay: Bcl-2 TR-FRET Assay; assay type: binding; settings: Bcl-2 wild type, TR-FRET; read-out: Biochemical assay (IC50, nM) Bcl-2 WT
How it was run: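 In pH 7.5 phosphate buffer containing NaCl, EDTA, Tween-20 and BSA, 0.05 nM Bcl-2 saw serially diluted compound for 0.5 h before 0.5 nM FITC-Bak peptide was added. Signal ratio at 520/490 nm after 1 h yielded IC50.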

[2] = biological target: recombinant human Bcl-2-G101V protein (Homo sapiens (Human), UniProt P10415, G101V); assay: Bcl-2-G101V TR-FRET Assay; assay type: binding; settings: Bcl-2 G101V mutant, TR-FRET; read-out: Biochemical assay (IC50, nM) Bcl-2 G101V
How it was run: (§1)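 Displacement of ligand from recombinant human Bcl-2-G101V measured by TR-FRET (ex337 nm, em490/520 nm), inhibition derived from the 490/520 ratio across compound titrations. IC50 from four-parameter logistic fit.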

[3] = test system: recombinant human Bcl-2-G101V protein; assay: Bcl-2-G101V TR-FRET Assay; assay type: binding; settings: ratio of biochemical IC50 Bcl-2 G101V / Bcl-2 WT
How it was run: as §1

[4] = test system: RS4;11 (BCL-2 dependent acute lymphoblastic leukemia cell line); assay: RS4;11 Cell Proliferation Assay; assay type: cell-based; settings: Homo sapiens, RS4-11, RS4;11 cells, read-out: Cellular proliferation assay (IC50, nM) RS4
How it was run: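 Viability measured via CellTiter-Glo luminescence after a 48 h, 37 °C exposure to compounds (10 points, highest 1 μM). Seeding was 50,000 RS4;11 cells per well in 10% FBS RPMI-1640; IC50 given as mean.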

[5] = test system: BCL-2 G101V knock-in cell line H96 (derive from RS4;11); assay: Bcl 2-G101V Knock-In RS4;11 Cell Proliferation Assay; assay type: cell-based; settings: Homo sapiens, RS4;11 Bcl-2 G101V knock-in clone H96, 48 hrs, CellTiter-GLO, read-out: Cellular proliferation assay (IC50, nM) RS4
How it was run: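 CellTiter-Glo luminescence after 48 h, 37 °C compound treatment (10 concentrations, maximum 1 μM or 10 μM) gave mean IC50 values. Cells were 50,000 per well of H96, a BCL2-G101V knock-in single clone derived from RS4;11 by Cas9 editing.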

COc1cc(CN2CCN(C3CC4(CCN(c5ccc(C(=O)NS(=O)(=O)c6ccc(NC[C@H]7CC[C@](C)(O)CC7)c([N+](=O)[O-])c6)c(Oc6cnc7[nH]cc(F)c7c6)c5)CC4)C3)[C@H](c3ccccc3C(C)C)C2)ccc1C(C)C [Example 264, 2-((3-fluoro-1H-pyrrolo[2,3-b]pyridin-5-yl)oxy)-N-((4-((((1r,4r)-4-hydroxy-4-methylcyclohexyl)methyl)amino)-3-nitrophenyl)sulfonyl)-4-(2-((R)-4-(4-isopropyl-3-methoxybenzyl)-2-(2-isopropylphenyl)piperazin-1-yl)-7-azaspiro[3.5]nonan-7-yl)benzamide]
IC50 [1]: 1.9 nM
IC50 [2]: 7.3 nM
Ratio of Bcl-2 G101V/WT [3]: 3.8
IC50 [4]: 0.26 nM
IC50 [5]: 0.78 nM

CC(C)c1ccccc1[C@@H]1CN(Cc2ccnc3c2OCC(C)(C)O3)CCN1C1CC2(C1)CN(c1ccc(C(=O)NS(=O)(=O)c3ccc(NC[C@H]4CC[C@](C)(O)CC4)c([N+](=O)[O-])c3)c(Oc3cnc4[nH]ccc4c3)c1)C2 [Example 316, 2-((1H-pyrrolo[2,3-b]pyridin-5-yl)oxy)-4-(6-((R)-4-((3,3-dimethyl-2,3-dihydro-[1,4]dioxino[2,3-b]pyridin-8-yl)methyl)-2-(2-isopropylphenyl)piperazin-1-yl)-2-azaspiro[3.3]heptan-2-yl)-N-((4-((((1r,4r)-4-hydroxy-4-methylcyclohexyl)methyl)amino)-3-nitrophenyl)sulfonyl)benzamide]
IC50 [1]: 0.022 nM
IC50 [2]: 0.1 nM
Ratio of Bcl-2 G101V/WT [3]: 4.5
IC50 [4]: 0.16 nM
IC50 [5]: 0.53 nM

[2H]C([2H])([2H])Oc1ccc(CN2CCN(C3CC4(CCN(c5ccc(C(=O)NS(=O)(=O)c6ccc(NC[C@H]7CC[C@](C)(O)CC7)c([N+](=O)[O-])c6)c(Oc6cnc7[nH]ccc7c6)c5)CC4)C3)C(c3ccccc3C(C)C)C2)cc1OC([2H])([2H])[2H] (stereo partly drawn) [Example 175, 2-((1H-pyrrolo[2,3-b]pyridin-5-yl)oxy)-4-(2-(4-(3,4-bis(methoxy-d3)benzyl)-2-(2-isopropylphenyl)piperazin-1-yl)-7-azaspiro[3.5]nonan-7-yl)-N-((4-((((1r,4r)-4-hydroxy-4-methylcyclohexyl)methyl)amino)-3-nitrophenyl)sulfonyl)benzamide]
IC50 [1]: 0.041 nM
IC50 [2]: 0.29 nM
Ratio of Bcl-2 G101V/WT [3]: 7.0
IC50 [4]: 0.33 nM
IC50 [5]: 1 nM

COc1ccc(CN2CCN(C3CC4(CCN(c5ccc(C(=O)NS(=O)(=O)c6ccc(NCC7CCOCC7)c([N+](=O)[O-])c6)c(Oc6cnc7[nH]cc(F)c7c6)c5)CC4)C3)[C@H](c3ccccc3C(C)C)C2)cc1OC [Example 191, (R)-4-(2-(4-(3,4-dimethoxybenzyl)-2-(2-isopropylphenyl)piperazin-1-yl)-7-azaspiro[3.5]nonan-7-yl)-2-((3-fluoro-1H-pyrolo[2,3-b]pyridin-5-yl)oxy)-N-((3-nitro-4-(((tetrahydro-2H-pyran-4-yl)methyl)amino)phenyl)sulfonyl) benzamide]
IC50 [1]: 0.061 nM
IC50 [2]: 0.2 nM
Ratio of Bcl-2 G101V/WT [3]: 3.3
IC50 [4]: 0.15 nM
IC50 [5]: 0.52 nM

CC(C)c1ccccc1C1CN(CC2CCOc3ccccc32)CCN1C1CC2(CCN(c3ccc(C(=O)NS(=O)(=O)c4ccc(NC[C@H]5CC[C@](C)(O)CC5)c([N+](=O)[O-])c4)c(Oc4cnc5[nH]ccc5c4)c3)CC2)C1 (stereo partly drawn) [Example 57, 2-((1H-pyrrolo[2,3-b]pyridin-5-yl)oxy)-4-(2-(4-(chroman-4-ylmethyl)-2-(2-isopropylphenyl)piperazin-1-yl)-7-azaspiro[3.5]nonan-7-yl)-N-((4-((((1r,4r)-4-hydroxy-4-methylcyclohexyl)methyl)amino)-3-nitrophenyl)sulfonyl)benzamide]
IC50 [1]: 0.44 nM
IC50 [2]: 2.2 nM
Ratio of Bcl-2 G101V/WT [3]: 5.0
IC50 [4]: 0.8 nM
IC50 [5]: 8.9 nM

COc1ccc(CN2CCN(C3CC4(C3)CN(c3ccc(C(=O)NS(=O)(=O)c5ccc(NCC6CCOCC6)c([N+](=O)[O-])c5)c(Oc5cnc6[nH]ccc6c5)c3)C4)[C@H](c3ccccc3C(C)C)C2)cc1OC [Example 173, (R)-2-((1H-pyrrolo[2,3-b]pyridin-5-yl)oxy)-4-(6-(4-(3,4-dimethoxybenzyl)-2-(2-isopropylphenyl)piperazin-1-yl)-2-azaspiro[3.3]heptan-2-yl)-N-((3-nitro-4-(((tetrahydro-2H-pyran-4-yl)methyl)amino)phenyl)sulfonyl) benzamide]
IC50 [1]: 0.017 nM
IC50 [2]: 0.11 nM
Ratio of Bcl-2 G101V/WT [3]: 6.5
IC50 [4]: 0.18 nM
IC50 [5]: 0.6 nM

COc1ccc(CN2CCN(C3CC4(CCN(c5ccc(C(=O)NS(=O)(=O)c6ccc(NC[C@H]7CC[C@](C)(O)CC7)c([N+](=O)[O-])c6)c(Oc6cnc7[nH]ccc7c6)c5)CC4)C3)C(c3ccccc3C)C2)cc1 (stereo partly drawn) [Example 34, 2-((1H-pyrrolo[2,3-b]pyridin-5-yl)oxy)-N-((4-((((1r,4r)-4-hydroxy-4-methylcyclohexyl)methyl)amino)-3-nitrophenyl)sulfonyl)-4-(2-(4-(4-methoxybenzyl)-2-(o-tolyl)piperazin-1-yl)-7-azaspiro[3.5]nonan-7-yl)benzamide]
IC50 [1]: 0.049 nM
IC50 [2]: 1.8 nM
Ratio of Bcl-2 G101V/WT [3]: 36.7
IC50 [4]: 1.3 nM
IC50 [5]: 13.9 nM

CC(C)c1ccccc1C1CN(Cc2cccc3c2OC(C)(C)O3)CCN1C1CC2(CCN(c3ccc(C(=O)NS(=O)(=O)c4ccc(NC[C@H]5CC[C@](C)(O)CC5)c([N+](=O)[O-])c4)c(Oc4cnc5[nH]ccc5c4)c3)CC2)C1 (stereo partly drawn) [Example 201, 2-((1H-pyrrolo[2,3-b]pyridin-5-yl)oxy)-4-(2-(4-((2,2-dimethylbenzo [d][1,3]dioxol-4-yl)methyl)-2-(2-isopropylphenyl)piperazin-1-yl)-7-azaspiro[3.5]nonan-7-yl)-N-((4-((((1r,4r)-4-hydroxy-4-methylcyclohexyl)methyl)amino)-3-nitrophenyl)sulfonyl)benzamide]
IC50 [1]: 0.28 nM
IC50 [2]: 1.1 nM
Ratio of Bcl-2 G101V/WT [3]: 3.9
IC50 [4]: 0.74 nM
IC50 [5]: 6.2 nM

CC(C)c1ccccc1[C@@H]1CN(Cc2ccnc3c2OC(C)(C)CO3)CCN1C1CC2(C1)CN(c1ccc(C(=O)NS(=O)(=O)c3ccc(NC[C@H]4CC[C@](C)(O)CC4)c([N+](=O)[O-])c3)c(Oc3cnc4[nH]ccc4c3)c1)C2 [Example 314, 2-((1H-pyrrolo[2,3-b]pyridin-5-yl)oxy)-4-(6-((R)-4-((2,2-dimethyl-2,3-dihydro-[1,4]dioxino[2,3-b]pyridin-8-yl)methyl)-2-(2-isopropylphenyl)piperazin-1-yl)-2-azaspiro[3.3]heptan-2-yl)-N-((4-((((1r,4r)-4-hydroxy-4-methylcyclohexyl)methyl)amino)-3-nitrophenyl)sulfonyl)benzamide]
IC50 [1]: 0.032 nM
IC50 [2]: 0.13 nM
Ratio of Bcl-2 G101V/WT [3]: 4.2
IC50 [4]: 0.17 nM
IC50 [5]: 0.61 nM
